Experimental data published in paper PMC7504735, “Enhanced Antigiardial Effect of Omeprazole Analog Benzimidazole Compounds” (Molecules, 2020).

Key:
[1] = system: Giardia lamblia trophozoites; assay: Antigiardial activity on G. lamblia trophozoites, trypan blue dye exclusion; assay type: cell-based; conditions: Giardia duodenalis, 48 h at 37 °C, pH 7.4, trypan blue
Experimental: Giardia lamblia WB strain (ATCC number 30957) was grown in a modified TYI-S-33 medium supplemented with 10% fetal bovine serum. The parasite was cultivated in 15 mL screw-capped borosilicate glass tubes containing 13 mL medium. The tubes were incubated on a 15° horizontal slant at 37 °C. Giardia was harvested from confluent culture by chilling the tubes on ice for 5‒10 min to detach cells, followed by centrifugation at 800× g for 5 min.
The antigiardial activity of the prepared compounds was tested as described. One milligram of a test compound was dissolved in 10 L of DMSO and topped up with 1 mL growth medium. The solution was filter-sterilized using 0.22-m syringe filters and the appropriate volumes of the solutions were taken to prepare the concentration of each compound in 1.5 mL microtubes. For each preparation, concentrations of 500, 250, 125, 62, and 31 µg/mL were prepared in a final volume of 1.5 mL. Each tube was inoculated with 5 × 10^4 trophozoites of G. lamblia and then incubated for 48 h at 37 °C. After incubation, 75 L of the treated trophozoites were subcultured individually for another 48 h in a fresh medium free of compounds. At the end of this period, the viable trophozoites were counted. Each compound was assayed in duplicate in three independent experiments. In each assay, appropriate controls were also tested, including a sample without compound and another with DMSO.
The parasites in each tube were counted using a standard hemocytometer at 10× objective. In each count, trypan blue was employed to distinguish live parasites from dead ones. To permit detachment of Giardia, the tubes were placed on ice for 10 min and the parasites were then centrifuged at 800× g for 10 min. The supernatant was discarded and 1 mL fresh medium was added to each tube. The final suspension was prepared by mixing 25 μL of the parasite suspension in each tube with 100 μL of 0.4% trypan blue in phosphate-buffered saline (PBS). The 50% inhibitory concentration (IC50) was employed as a parameter for biological activity. The IC50 is the concentration of compounds that cuts the number of parasites to half that in the negative control (growth medium + DMSO + parasites). Lastly, the 50% inhibitory concentration (IC50) was calculated.

in vitro = assay type: cell-based; conditions: human, Caco-2; for viability at 48 h, 500 µM: read-out: Viability of Caco-2 cells (lowered to); for CC50 at 48 h: XTT; for selectivity ratio at 48 h: ratio of CC50/IC50 between mammal cells and trophozoites, read-out: Selectivity index (SI), CC50 Caco-2 / IC50 trophozoites
Experimental: (§1) The cytotoxicity of compounds was investigated on human cell lines Caco-2 (ATCC HTB-37) and HT-29 (ATCC HHTB-38), using a Cell Proliferation Kit II (XTT; St Louis, MO, USA) according to the manufacturer’s instructions. A cell suspension of 10^5 cells/mL was prepared in Dulbecco’s modified Eagle’s (DMEM); medium supplemented with 10% inactivated fetal bovine serum and 1% Penicillin/streptomycin (5000 U/mL), from confluent cultures, and […] portions of the suspension were added to the wells of 96-well plates. […] Solutions of the compound were prepared and sterilized as described in Section 3.4.1 of Materials and Methods. Then, 150 μL of two-fold serial dilutions of each of the compounds, starting at a concentration of 500 µM, in a culture medium at a concentration of 0.3% DMSO, were prepared in the plates. […] Each compound was assayed in triplicate via three independent experiments.

Caco-2 cells = assay: in vitro; assay type: cell-based
Experimental: as §1

[2] = In vitro cytotoxicity, XTT assay, HT29; assay type: cell-based, human; conditions: human, HT-29 cells; for viability at 48 h, 500 µM: read-out: Viability of HT-29 cells (lowered to); for CC50 at 48 h: XTT
Experimental: as §1

HT29 cells = assay: In vitro cytotoxicity, XTT assay, HT29; assay type: cell-based, human; conditions: for Selectivity index (SI), CC50 HT29 / IC50 trophozoites: ratio of CC50/IC50 between mammal cells and trophozoites
Experimental: as §1

[3] = target: T1, triosephosphate isomerase (TPI) (Giardia intestinalis, UniProt P36186); assay: Intrinsic fluorescence of TPI; conditions: for Decrease of maximum intrinsic fluorescence intensity of TPI: compared to the TPI enzyme free of compounds; for Maximum intrinsic fluorescence intensity of TPI: compound at IC50 concentration, TPI without inhibitors 161 a.u. at 330 nm
T1 construct: His-tag (TEV-cleavable) (cleaved yes); made in house
Experimental: Changes in tertiary structure were analyzed following the intrinsic and extrinsic fluorescence of the TPI enzyme in a Perkin-Elmer LS-55 spectrofluorometer (Perkin-Elmer, Wellesley, MA, USA). The TPI protein was adjusted at 0.1 mg/mL in 50 mM phosphate buffer (buffer P), pH 7.4n, and incubated with the four synthesized compounds by 2 h at 37 °C. After the TPI protein was incubated with the synthesized compounds, the samples were excited at 280 nm and we recorded the emission spectra from 300 to 500 nm with a scan speed of 150 nm/min and using excitation and emission slits of 5 and 4 nm, respectively. Furthermore, we determined the extrinsic fluorescence of the TPI enzyme in the presence of the four compounds by 8-anilinonaphthalene-1-sulfonic acid (ANS) assay to monitor changes in the hydrophobic regions of the protein. The protein was incubated in the same conditions as the intrinsic fluorescence assay. Then, we recorded the fluorescence spectra from 400 to 600 nm in the presence of 25 mM of ANS dissolved in methanol at 25 °C with a scanning rate of 150 nm/min. The samples were excited to 395 nm using slits of excitation and emission of 10 nm, respectively. The final spectrum was the average of five scans. Later, each spectrum was subtracted from the spectra of the blank (buffer P solution containing each of the compounds plus ANS).

[4] = 500 µM (highest concentration tested)

T1 sequence (P36186 whole entry): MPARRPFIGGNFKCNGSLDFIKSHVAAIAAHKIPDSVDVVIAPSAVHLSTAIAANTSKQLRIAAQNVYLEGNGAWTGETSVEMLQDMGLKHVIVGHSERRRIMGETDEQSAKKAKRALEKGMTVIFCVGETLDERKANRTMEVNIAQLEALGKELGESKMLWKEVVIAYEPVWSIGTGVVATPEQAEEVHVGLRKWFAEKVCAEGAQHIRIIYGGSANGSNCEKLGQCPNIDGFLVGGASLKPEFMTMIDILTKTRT

Row | Compound | IC50 [1] [µM] | viability at 48 h, 500 µM (in vitro) [%] | CC50 at 48 h (in vitro) [µM] | selectivity ratio at 48 h (in vitro) | Cell viability decrease, Caco-2 (Caco-2 cells; 150 µM) | viability at 48 h, 500 µM [2] [%] | CC50 at 48 h [2] [µM] | Cell viability decrease, HT29 (HT29 cells; 150 µM) | Selectivity index (SI), CC50 HT29 / IC50 trophozoites (HT29 cells) | Decrease of maximum intrinsic fluorescence intensity of TPI [3] [%] | Maximum intrinsic fluorescence intensity of TPI [3] [a.u.] | Cell viability decrease, Caco-2 (Caco-2 cells; [4]) | Cell viability decrease, HT29 (HT29 cells; [4]) | CC50 (Caco-2 cells; XTT, 48 h) [µM] | CC50 (HT29 cells; XTT, 48 h) [µM]
1 | Cc1c(OCC(F)(F)F)ccnc1C[S+]([O-])c1nc2ccc([N+](=O)[O-])cc2[nH]1 (stereo not shown) [O2N-BZM9, 2-{[3-methyl-4-(2,2,2-trifluoroethoxy)pyridin-2-yl]methanesulfinyl}-5-nitro-1H-benzimidazole] | 17 | ~50 | 663 | 39 | around 20% | ~50 | 622 | around 20% | 36 | 55 | 72.6 | – | – | – | –
2 | O=[N+]([O-])c1ccc2nc([S+]([O-])Cc3ccccn3)[nH]c2c1 (stereo not shown) [O2N-BZM7, 5-nitro-2-[(pyridin-2-yl)methanesulfinyl]-1H-benzimidazole] | 14 | ~50 | 640 | 45 | around 20% | ~50 | 519 | around 20% | 37 | 33 | 107 | – | – | – | –
3 | COc1c(C)cnc(C[S+]([O-])c2nc3ccccc3[nH]2)c1C (stereo not shown) [H-BZM2, 2-[(4-methoxy-3,5-dimethylpyridin-2-yl)methanesulfinyl]-1H-benzimidazole] | 36 | – | 3180 | 88 | – | – | 1910 | – | 53 | 75 | 40.1 | approximately 20% | approximately 20% | – | –
4 | Cc1c(OCC(F)(F)F)ccnc1C[S+]([O-])c1nc2ccccc2[nH]1 (stereo not shown) [Lansoprazole, 2-{[3-methyl-4-(2,2,2-trifluoroethoxy)pyridin-2-yl]methanesulfinyl}-1H-benzimidazole, reference compound] | 45 | – | – | 59 | – | – | – | – | 12 | 25 | 123 | approximately 20% | approximately 20% | 2640 | 548
